In patent publication EP2703003A1, “A pomegranate extract and compositions containing pomegranate polyphenols for treating or preventing diseases or physiopathological conditions associated with an excessive gene expression and/or physiological activity of interleukin-6” (Probelte Biotecnologia S.L., priority 2012, dated 2014):
Like-named read-outs stand apart in the source and are kept apart here.

Columns and labels:
[1] = tested on: dermal papilla hair follicle cells; conditions: 24 hours, 270 picog/mL at dose 0
Procedure: In another independent study, in vitro cultures of dermal papilla hair follicle cells grown using DMEM as a culture medium were seeded at a density of 1.5 x 10^5 cells per 50 mm of plate surface and incubated overnight. Then 3 consecutive washes with PBS were performed and DMEM culture medium supplemented with variables amounts of DHT was added to each of the cultures; specifically three doses were tested: 0, 25 and 100 nanoM. The culture medium was sampled after 24 hours to measure the concentration of interleukin-6 by means of ELISA.

[2] = side effect, background statement; cited from earlier work

Structure (SMILES) | mean concentration of interleukin-6 in the culture media ([1]; 25 nanoM) [picog/mL] | mean concentration of interleukin-6 in the culture media ([1]; 100 nanoM) [picog/mL] | itchy scalp [2]
C[C@]12CCC(=O)C[C@@H]1CC[C@@H]1[C@@H]2CC[C@]2(C)[C@@H](O)CC[C@@H]12 [DHT, 5-dihydrotestosterone] | 1270 | 2190 | 
Nc1cc(N2CCCCC2)nc(N)[n+]1[O-] [Minoxidil] |  |  | 1.5 % of patients
